Experimental data from publication PMC11151202 (Molecular Pharmaceutics, 2024).
In brackets after ≈: the same amount, converted by molar mass. Blank lines part the entries; values can stand above or below the compound they belong to.

What was measured:
Biorelevant solubility = assay type: physicochemical; conditions: 37 °C, biorelevant media pH 6.5 (3 mM taurocholate, 0.75 mM phospholipids), mean ± SD, n = 3
Protocol: The media utilized in this experiment were composed of 2 mM Tris-maleate, 150 mM NaCl, and 1.06 mM CaCl2. The pH of the media was adjusted to pH 6.5. The media were supplemented with FaSSIF powder a day prior to the experiment, resulting in a composition of the final biorelevant media of 3 mM taurocholate and 0.75 mM phospholipids. This final solution will be referred to as the “biorelevant media” throughout this paper. The biorelevant media was left at room temperature at least 2 h prior to usage. […] The suspensions were placed in an oven at 37 °C and were stirred at 200 rpm. Samples were taken at time points of 3, 6, and 24 h and centrifuged at 21,380g (Mikro 200 R, Hettich GmbH, Germany) for 30 min at 37 °C. The resulting supernatant was transferred to a new sample tube and centrifuged again under identical conditions. Samples were diluted 1:10 (v/v) with the mobile phase before analysis. The samples were analyzed using an Agilent 1200 series HPLC system (Agilent Technology Inc., United States) via HPLC, as described above.

[1] = Saturation during in vitro testing (saturation ratio); assay type: physicochemical; conditions: all cases: medium- and long-chain LBFs, after dispersion and digestion
Protocol: The degree of saturation of drug concentrations in the aqueous phase during the in vitro lipolysis experiment was measured by comparing the measured aqueous phase concentration to the equilibrium drug solubility in samples containing dispersed and digested nondrug loaded formulations under identical conditions. Excess drug or lipophilic salt was added to 2 mL samples of the blank aqueous phase and stirred at 37 °C for 24 h. Samples were withdrawn, centrifuged, and analyzed under conditions identical to those in Section 2.2.9. […] Saturation ratios were evaluated at the end of the dispersion phase and the end of the digestion phase.

[2] = Equilibrium solubility studies in lipid excipients / LBFs; assay type: physicochemical; conditions: 37 °C, venetoclax free base equivalents
Protocol: Samples were stirred at 200 rpm (Mixdrive 15 2MAG, Germany) at 37 °C. Samples were withdrawn after 24, 48, and 72 h, followed by centrifugation at 21,000g (Mikro 200R Andreas Hettich GmbH & Co. KG, Germany) for 30 min. The supernatant was extracted and centrifuged again under identical conditions. The resulting supernatant was solubilized 1:10 v/v in a mixture of acetonitrile and ethyl acetate (1:4 v/v), followed by a further 1:10 v/v dilution in acetonitrile and ethyl acetate (4:1 v/v). Samples were analyzed by HPLC as per the method above. All samples were analyzed in triplicate.

[3] = In vitro lipolysis (dispersion and digestion) of LBFs; assay type: physicochemical
Protocol: The LBFs were assayed using the in vitro lipolysis method[25] to assess the potential for formulations containing dissolved lipophilic salt to maintain the drug in a solubilized state as the formulation is dispersed and digested under simulated gastrointestinal conditions. Formulations utilized in this experiment were loaded at 80% equilibrium solubility as per Section 2.2.6, at drug doses outlined in Table 3.
The in vitro lipolysis experiments were performed using a pH stat apparatus (Metrohm AG, Herisau, Switzerland) comprising an 836 Titando, an 804 Ti Stand, a pH electrode (Metrohm), and two 800 Dosino 20 mL dosing units. The system was operated by Tiamo 2.5 software (Metrohm). The biorelevant medium described in Section 2.2.8 was used for this experiment. The pancreatin extract (8× USP) was reconstituted immediately prior to use by adding 5 mL of the biorelevant medium to 1 g of pancreatin, vortexed thoroughly, and centrifuged at 4000g for 15 min at 4 °C (Centrifuge 5702 R, Eppendorf, Germany); 4 mL of the resulting supernatant was recovered and immediately stored on ice before further usage. […] The amount of NaOH dispensed was recorded by the system and used to assess the rate and extent of digestion. […] As the formulation is a type III-A formulation, ultracentrifugation was not required as the lipids should readily disperse within the biorelevant medium.[25] […]

[4] = cited from earlier work

Compound: CC1(C)CCC(CN2CCN(c3ccc(C(=O)NS(=O)(=O)c4ccc(NCC5CCOCC5)c([N+](=O)[O-])c4)c(Oc4cnc5[nH]ccc5c4)c3)CC2)=C(c2ccc(Cl)cc2)C1.CCCCCCCCCCOS(=O)(=O)O [venetoclax decyl sulfate]
biorelevant solubility (Biorelevant solubility): 10.3 ± 0.8 µg/mL

Compound: CC1(C)CCC(CN2CCN(c3ccc(C(=O)NS(=O)(=O)c4ccc(NCC5CCOCC5)c([N+](=O)[O-])c4)c(Oc4cnc5[nH]ccc5c4)c3)CC2)=C(c2ccc(Cl)cc2)C1.CCCCC(CC)COC(=O)CC(C(=O)OCC(CC)CCCC)S(=O)(=O)O [venetoclax docusate]
biorelevant solubility (Biorelevant solubility): 16.2 ± 1.6 µg/mL
saturation ratio [1]: < 10.3
apparent equilibrium solubility in long-chain LBF [2]: > 25 mg/g
apparent equilibrium solubility in medium-chain LBF [2]: > 50 mg/g

Compound: CC1(C)CCC(CN2CCN(c3ccc(C(=O)NS(=O)(=O)c4ccc(NCC5CCOCC5)c([N+](=O)[O-])c4)c(Oc4cnc5[nH]ccc5c4)c3)CC2)=C(c2ccc(Cl)cc2)C1.CCCCCCCCCCCCS(=O)(=O)O [venetoclax dodecanesulfonate]
biorelevant solubility (Biorelevant solubility): 9.8 ± 1.4 µg/mL
apparent equilibrium solubility in long-chain LBF [2]: > 25 mg/g
apparent equilibrium solubility in medium-chain LBF [2]: > 50 mg/g

Further lines, with some results ahead:

biorelevant solubility (Biorelevant solubility): 8.4 ± 0.7 µg/mL
Compound: CC1(C)CCC(CN2CCN(c3ccc(C(=O)NS(=O)(=O)c4ccc(NCC5CCOCC5)c([N+](=O)[O-])c4)c(Oc4cnc5[nH]ccc5c4)c3)CC2)=C(c2ccc(Cl)cc2)C1.CCCCCCCCCCCCCCCCCCOS(=O)(=O)O [venetoclax octadecyl sulfate]

biorelevant solubility (Biorelevant solubility): 7.4 ± 0.7 µg/mL
Compound: CC1(C)CCC(CN2CCN(c3ccc(C(=O)NS(=O)(=O)c4ccc(NCC5CCOCC5)c([N+](=O)[O-])c4)c(Oc4cnc5[nH]ccc5c4)c3)CC2)=C(c2ccc(Cl)cc2)C1.CCCCCCCCS(=O)(=O)O [venetoclax octanesulfonate]

biorelevant solubility (Biorelevant solubility): 7.7 ± 0.6 µg/mL
Compound: CC1(C)CCC(CN2CCN(c3ccc(C(=O)NS(=O)(=O)c4ccc(NCC5CCOCC5)c([N+](=O)[O-])c4)c(Oc4cnc5[nH]ccc5c4)c3)CC2)=C(c2ccc(Cl)cc2)C1.CCCCCCCCOS(=O)(=O)O [venetoclax octyl sulfate]

concentration of venetoclax in the aqueous phase ([3]; LBFs loaded with free base, dispersion and digestion): < 50 µg/mL
dose precipitated ([3]; medium- and long-chain formulations): greater than 80%
solubility (Biorelevant solubility; biorelevant media (FaSSIF-supplemented Tris-maleate buffer), fassif, thermodynamic from solid): 5.5 ± 1 µg/mL (≈ 6.33 µM)
Compound: CC1(C)CCC(CN2CCN(c3ccc(C(=O)NS(=O)(=O)c4ccc(NCC5CCOCC5)c([N+](=O)[O-])c4)c(Oc4cnc5[nH]ccc5c4)c3)CC2)=C(c2ccc(Cl)cc2)C1 [venetoclax]
solubility in medium- and long-chain triglycerides [4]: < 1000 µg/mL
